The target of test [1] is T1, D(1A) dopamine receptor (Homo sapiens, UniProt P21728). It counts as functional, cell-based.
Test [2] has as its target T1, D(1A) dopamine receptor.
The target of test [3] is Sodium-dependent noradrenaline transporter (Homo sapiens, UniProt P23975).
Test [4] deals with T2, Alpha-1A adrenergic receptor (Homo sapiens, UniProt P35348).
T2 sequence (P35348 whole entry): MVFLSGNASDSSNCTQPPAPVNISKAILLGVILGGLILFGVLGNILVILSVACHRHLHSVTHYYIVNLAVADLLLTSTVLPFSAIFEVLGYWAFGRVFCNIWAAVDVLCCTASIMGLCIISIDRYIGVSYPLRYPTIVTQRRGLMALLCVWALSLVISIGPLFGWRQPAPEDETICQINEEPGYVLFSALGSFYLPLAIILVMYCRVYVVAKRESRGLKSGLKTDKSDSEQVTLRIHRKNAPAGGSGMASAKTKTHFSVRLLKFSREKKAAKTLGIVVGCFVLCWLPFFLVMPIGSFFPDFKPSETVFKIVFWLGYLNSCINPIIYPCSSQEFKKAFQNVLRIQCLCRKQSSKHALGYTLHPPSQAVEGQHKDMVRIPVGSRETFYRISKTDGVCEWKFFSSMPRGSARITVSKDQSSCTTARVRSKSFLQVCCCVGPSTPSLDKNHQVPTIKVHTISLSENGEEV

Test [5] deals with 3',5'-cyclic-AMP phosphodiesterase 4A (Homo sapiens, UniProt P27815). In kind it is functional.
3',5'-cyclic-AMP phosphodiesterase 4A, sequence (P27815 whole entry): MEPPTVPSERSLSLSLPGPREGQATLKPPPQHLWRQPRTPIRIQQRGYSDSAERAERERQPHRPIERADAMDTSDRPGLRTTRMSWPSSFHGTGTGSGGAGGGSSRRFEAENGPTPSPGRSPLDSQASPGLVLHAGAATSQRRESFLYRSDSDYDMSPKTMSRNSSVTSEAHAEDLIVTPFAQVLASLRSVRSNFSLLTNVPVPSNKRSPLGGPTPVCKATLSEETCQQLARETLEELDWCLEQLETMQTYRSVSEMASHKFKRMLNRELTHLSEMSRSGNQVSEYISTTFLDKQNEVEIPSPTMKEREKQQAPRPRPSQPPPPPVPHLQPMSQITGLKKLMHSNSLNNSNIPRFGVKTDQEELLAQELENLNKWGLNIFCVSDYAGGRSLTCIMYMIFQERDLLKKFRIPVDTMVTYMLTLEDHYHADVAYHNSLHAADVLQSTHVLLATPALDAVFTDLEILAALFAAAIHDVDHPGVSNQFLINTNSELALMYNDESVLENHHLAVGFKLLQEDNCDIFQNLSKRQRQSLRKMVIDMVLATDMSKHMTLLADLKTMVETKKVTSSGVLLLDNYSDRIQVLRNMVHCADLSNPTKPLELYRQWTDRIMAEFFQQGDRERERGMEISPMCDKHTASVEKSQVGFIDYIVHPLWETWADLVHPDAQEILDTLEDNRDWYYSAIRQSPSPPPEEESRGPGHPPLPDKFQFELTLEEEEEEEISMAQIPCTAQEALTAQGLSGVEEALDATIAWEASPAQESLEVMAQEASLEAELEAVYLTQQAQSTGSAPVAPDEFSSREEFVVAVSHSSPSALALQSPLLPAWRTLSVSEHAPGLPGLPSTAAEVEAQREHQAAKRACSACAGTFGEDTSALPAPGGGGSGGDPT
In test [6] the target is T3, Alpha-2B adrenergic receptor (Homo sapiens, UniProt P18089).
T3 sequence (P18089 whole entry): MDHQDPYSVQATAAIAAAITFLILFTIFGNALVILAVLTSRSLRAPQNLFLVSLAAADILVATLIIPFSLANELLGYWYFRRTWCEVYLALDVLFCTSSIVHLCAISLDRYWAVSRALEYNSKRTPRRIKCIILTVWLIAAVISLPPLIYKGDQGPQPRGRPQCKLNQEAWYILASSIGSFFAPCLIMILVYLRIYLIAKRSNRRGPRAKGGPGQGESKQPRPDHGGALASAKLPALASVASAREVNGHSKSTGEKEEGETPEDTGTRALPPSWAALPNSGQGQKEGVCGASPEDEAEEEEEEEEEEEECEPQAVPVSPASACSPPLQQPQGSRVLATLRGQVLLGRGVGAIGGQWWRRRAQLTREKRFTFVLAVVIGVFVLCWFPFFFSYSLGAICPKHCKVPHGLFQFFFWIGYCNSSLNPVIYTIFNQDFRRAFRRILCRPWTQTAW

For a further test, the target named is Melanocortin receptor 4 (Homo sapiens, UniProt P32245).
Melanocortin receptor 4, sequence (P32245 whole entry): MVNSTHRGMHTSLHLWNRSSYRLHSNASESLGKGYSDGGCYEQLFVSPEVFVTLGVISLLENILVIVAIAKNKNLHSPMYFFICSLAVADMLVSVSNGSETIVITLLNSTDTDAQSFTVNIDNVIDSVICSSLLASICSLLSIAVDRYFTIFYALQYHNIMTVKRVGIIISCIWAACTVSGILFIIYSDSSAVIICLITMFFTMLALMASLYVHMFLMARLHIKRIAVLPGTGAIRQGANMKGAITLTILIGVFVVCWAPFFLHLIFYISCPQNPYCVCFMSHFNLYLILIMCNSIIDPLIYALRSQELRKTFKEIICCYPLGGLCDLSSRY
Test [7] concerns the target Gamma-aminobutyric acid receptor subunit alpha-1 (Rattus norvegicus, UniProt P62813). In kind it is functional.
The target of test [8] is T4, Muscarinic acetylcholine receptor M1 (Homo sapiens, UniProt P11229).
T4 sequence (P11229 whole entry): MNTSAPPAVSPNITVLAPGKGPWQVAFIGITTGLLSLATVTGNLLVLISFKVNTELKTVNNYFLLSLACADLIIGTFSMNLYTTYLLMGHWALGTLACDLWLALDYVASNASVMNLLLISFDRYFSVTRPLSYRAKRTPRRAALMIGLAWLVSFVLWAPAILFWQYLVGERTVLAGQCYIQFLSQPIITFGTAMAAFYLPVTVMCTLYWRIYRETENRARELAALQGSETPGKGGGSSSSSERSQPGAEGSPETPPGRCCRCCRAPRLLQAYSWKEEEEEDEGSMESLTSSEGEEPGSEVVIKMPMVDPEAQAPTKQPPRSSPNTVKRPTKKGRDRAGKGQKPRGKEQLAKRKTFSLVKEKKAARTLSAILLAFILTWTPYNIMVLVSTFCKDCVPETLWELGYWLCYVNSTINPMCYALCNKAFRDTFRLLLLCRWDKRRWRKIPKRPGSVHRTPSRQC
In kind it is functional, cell-based.

For a further test, the target named is Vasopressin V1a receptor (Homo sapiens, UniProt P37288).
Vasopressin V1a receptor, sequence (P37288 whole entry): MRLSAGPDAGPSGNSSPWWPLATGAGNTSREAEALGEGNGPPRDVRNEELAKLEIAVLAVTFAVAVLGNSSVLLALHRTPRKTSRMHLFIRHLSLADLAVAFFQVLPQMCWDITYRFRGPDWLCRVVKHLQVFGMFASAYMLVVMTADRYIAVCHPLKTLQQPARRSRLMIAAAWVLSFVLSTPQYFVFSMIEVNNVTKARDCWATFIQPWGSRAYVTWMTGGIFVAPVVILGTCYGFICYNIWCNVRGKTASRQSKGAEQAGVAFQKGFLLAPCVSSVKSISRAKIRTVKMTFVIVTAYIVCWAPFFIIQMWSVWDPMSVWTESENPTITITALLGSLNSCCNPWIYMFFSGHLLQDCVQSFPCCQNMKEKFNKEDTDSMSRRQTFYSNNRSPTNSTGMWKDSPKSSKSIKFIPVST
The next test concerns the target T5, Progesterone receptor (Homo sapiens, UniProt P06401).
T5 sequence (P06401 whole entry): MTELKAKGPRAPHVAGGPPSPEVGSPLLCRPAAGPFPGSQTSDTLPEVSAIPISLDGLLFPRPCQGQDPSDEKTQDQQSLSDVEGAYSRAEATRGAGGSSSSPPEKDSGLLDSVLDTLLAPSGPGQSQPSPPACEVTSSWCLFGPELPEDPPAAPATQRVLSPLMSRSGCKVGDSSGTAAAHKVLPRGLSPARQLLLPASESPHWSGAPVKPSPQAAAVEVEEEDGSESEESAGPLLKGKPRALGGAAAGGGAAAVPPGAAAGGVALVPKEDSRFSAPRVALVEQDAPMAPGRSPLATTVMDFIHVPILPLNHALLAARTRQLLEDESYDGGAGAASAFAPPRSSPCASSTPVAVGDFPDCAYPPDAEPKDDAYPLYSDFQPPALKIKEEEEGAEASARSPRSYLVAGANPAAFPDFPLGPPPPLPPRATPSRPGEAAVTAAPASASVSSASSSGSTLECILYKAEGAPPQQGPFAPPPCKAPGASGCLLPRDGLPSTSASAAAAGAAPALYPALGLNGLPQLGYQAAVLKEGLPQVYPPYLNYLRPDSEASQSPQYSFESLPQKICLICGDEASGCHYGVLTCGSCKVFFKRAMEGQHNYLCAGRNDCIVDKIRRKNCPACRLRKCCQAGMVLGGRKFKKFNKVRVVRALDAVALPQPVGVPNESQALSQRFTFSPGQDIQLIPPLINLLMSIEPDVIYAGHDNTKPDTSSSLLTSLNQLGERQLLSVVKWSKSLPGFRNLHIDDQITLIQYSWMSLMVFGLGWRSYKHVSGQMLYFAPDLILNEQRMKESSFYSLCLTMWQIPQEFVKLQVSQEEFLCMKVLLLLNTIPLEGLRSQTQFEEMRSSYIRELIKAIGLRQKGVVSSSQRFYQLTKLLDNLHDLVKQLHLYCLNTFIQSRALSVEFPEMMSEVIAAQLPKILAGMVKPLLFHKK
Note: assay procedure not described here.

T1 sequence (P21728 whole entry): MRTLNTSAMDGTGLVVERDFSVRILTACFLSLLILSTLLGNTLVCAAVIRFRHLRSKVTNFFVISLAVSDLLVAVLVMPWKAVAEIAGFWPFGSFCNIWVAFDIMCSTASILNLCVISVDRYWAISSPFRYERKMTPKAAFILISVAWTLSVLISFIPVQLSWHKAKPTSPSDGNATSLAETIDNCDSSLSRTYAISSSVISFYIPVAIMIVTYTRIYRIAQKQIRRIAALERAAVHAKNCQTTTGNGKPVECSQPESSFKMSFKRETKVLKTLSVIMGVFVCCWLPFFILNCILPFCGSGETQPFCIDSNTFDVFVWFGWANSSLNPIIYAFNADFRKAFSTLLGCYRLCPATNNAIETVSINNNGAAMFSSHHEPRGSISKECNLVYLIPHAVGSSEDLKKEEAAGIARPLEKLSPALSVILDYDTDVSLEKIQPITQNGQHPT
Sodium-dependent noradrenaline transporter, sequence (P23975 whole entry): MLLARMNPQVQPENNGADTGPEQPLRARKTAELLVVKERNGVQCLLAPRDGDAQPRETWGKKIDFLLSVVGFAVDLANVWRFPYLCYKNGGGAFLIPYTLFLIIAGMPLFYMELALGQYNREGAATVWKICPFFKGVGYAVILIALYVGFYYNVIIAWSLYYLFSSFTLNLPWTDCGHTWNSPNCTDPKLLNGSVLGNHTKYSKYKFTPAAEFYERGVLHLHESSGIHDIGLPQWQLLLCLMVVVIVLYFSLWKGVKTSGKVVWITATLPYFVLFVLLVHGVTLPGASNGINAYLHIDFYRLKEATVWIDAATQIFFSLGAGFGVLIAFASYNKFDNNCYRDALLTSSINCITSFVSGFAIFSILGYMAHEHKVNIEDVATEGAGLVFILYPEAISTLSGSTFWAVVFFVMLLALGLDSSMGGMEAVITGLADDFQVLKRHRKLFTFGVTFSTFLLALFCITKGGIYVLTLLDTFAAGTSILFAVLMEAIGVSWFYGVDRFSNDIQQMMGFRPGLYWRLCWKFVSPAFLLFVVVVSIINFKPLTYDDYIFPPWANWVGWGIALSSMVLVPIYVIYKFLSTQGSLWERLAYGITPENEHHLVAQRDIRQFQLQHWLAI
Gamma-aminobutyric acid receptor subunit alpha-1, sequence (P62813 whole entry): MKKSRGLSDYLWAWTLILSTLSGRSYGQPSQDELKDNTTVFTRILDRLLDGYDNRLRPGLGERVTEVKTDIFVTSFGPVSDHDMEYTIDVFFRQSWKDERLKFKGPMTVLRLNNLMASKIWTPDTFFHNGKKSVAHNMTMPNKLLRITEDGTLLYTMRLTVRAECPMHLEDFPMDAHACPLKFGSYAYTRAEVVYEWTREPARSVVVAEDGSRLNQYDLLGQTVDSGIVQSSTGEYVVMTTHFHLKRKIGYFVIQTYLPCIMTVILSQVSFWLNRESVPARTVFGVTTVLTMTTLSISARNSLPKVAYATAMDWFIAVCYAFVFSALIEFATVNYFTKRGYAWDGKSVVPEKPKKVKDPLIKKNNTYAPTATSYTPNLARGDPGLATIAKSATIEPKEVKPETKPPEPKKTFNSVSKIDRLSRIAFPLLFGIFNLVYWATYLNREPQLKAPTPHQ

Turning to `CCC(=O)O[C@]1(C(=O)SCF)[C@H](C)C[C@H]2[C@@H]3C[C@H](F)C4=CC(=O)C=C[C@]4(C)[C@@]3(F)[C@@H](O)C[C@@]21C` [FLUTICASONE PROPIONATE], the AC50 (usually the concentration giving half of the maximal activity seen) is more than 30 µM at D(1A) dopamine receptor [1]; more than 30 µM on D(1A) dopamine receptor [2]; more than 30 µM in test [3]; more than 10 µM in test [4]; more than 30 µM in [5]; more than 30 µM in [6]. In addition, the AC50 (at Melanocortin receptor 4; in test [7]; in test [8]; on Vasopressin V1a receptor) was more than 30 µM each time.

For `CC[C@@H]([C@H](C)O)n1ncn(-c2ccc(N3CCN(c4ccc(OC[C@@H]5CO[C@@](Cn6cncn6)(c6ccc(F)cc6F)C5)cc4)CC3)cc2)c1=O` [POSACONAZOLE], the concentration at half-maximal activity (AC50) is more than 30 µM at D(1A) dopamine receptor [2]; more than 30 µM in test [3]; more than 30 µM in test [5]; more than 30 µM in test [6]; more than 1 µM in [8]; more than 30 µM on Progesterone receptor.

For the compound `c1ccc2c(c1)CCc1ccccc1N2C1CN2CCC1CC2` (stereo unspecified) [QUINUPRAMINE], the concentration at half-maximal activity (AC50) is 2.41 µM on D(1A) dopamine receptor [2]; 4.32 µM in test [3]; more than 30 µM in test [5]; 0.0076 µM in [8]; more than 30 µM on Progesterone receptor.

As for `C[C@H](Cc1cc2c(c(C(N)=O)c1)N(CCCO)CC2)NCCOc1ccccc1OCC(F)(F)F` [SILODOSIN], the concentration at half-maximal activity (AC50) at D(1A) dopamine receptor [2] was 10.8 µM; in test [3] it was more than 30 µM; in [5], more than 30 µM; in test [8] it was more than 30 µM; at Progesterone receptor, more than 30 µM.

In the case of `CC1=CCC(C(C)(C)O)CC1O` (stereo unspecified) [SOBREROL], the AC50 (at D(1A) dopamine receptor [2]; in test [3]; in test [5]; in test [8]; on Progesterone receptor) was more than 30 µM throughout.

As for `CCOC(=O)N1CSC[C@H]1C(=O)O` [TELMESTEINE], the AC50 (at D(1A) dopamine receptor [2]; in [3]; in test [5]; in test [8]; on Progesterone receptor) was more than 30 µM each time.

These data come from ChEMBL document CHEMBL5291721, “A preclinical secondary pharmacology resource illuminates target-adverse drug reaction associations of marketed drugs” (Nat Commun, 2023).
